Source: patent publication US8697692B2, “Pyrrolo [3,2-c] pyridine-4-one 2-indolinone protein kinase inhibitors” (Shanghai Hengrui Pharmaceutical Co., Ltd., priority 2006, dated 2014)
Like-named read-outs stand apart in the source and are kept apart here.

Test system: A431 cell
Assay: Cell Proliferation Inhibition EGFR Assay (SRB method)
Assay type: cell-based, homo sapient
Conditions: Homo sapiens, read-out: IC50 (A431)
From the text: The following in vitro assay may be used to determine the level of activity and effect of different compounds of the present invention on the proliferation inhibition (cell toxic) of […] growth factor receptor (EGFR) high expressing homo […] cancer cell-A431 cell. The cellular assay described here measure the compounds of their anti-angiogenesis and proliferation inhibition activity and effect through EGFR on the cancer cells in vitro. The effect and activity is represented by the IC50 value that kills the cancer cell. […] The homo […] highly express EGFR are chosen and seeded to 96-well cell culture plate at a suitable concentration (exp 5000 cells/ml medium). The cells then are cultured in carbon dioxide (CO2) incubator till when they confluence to about 85%. Then, the cell culture medium is replaced by fresh one with tested compounds added in it at serial concentrations (general 6 to 7 concentrations). Then the cells are put back to the culture and cultured for continuous 72 hours. 72 hours later, the cell exposed to compounds and control cell are assayed for their proliferation using Sulforhodamine B (SRB) method. Compounds IC50 on tested cells are calculated by the data of inhibition rates of serial concentrations of the tested compounds. • a. Dimethyl sulfoxide (Sinophma chemical reagent company, catalog No. T20050806) • b. A431 cells (Purchased from Institute of biochemistry and cell biology) • c. Falcon 100 mm cell culture plates (Baton Dickison Labware, Baton Dickison and company, • Catalog No. 18677) • d. coming 96-well culture cluster (Corning Incorporated, Catalog No. 3599) • e. Fisher Pipette (Fisher scientific, Catalog No. 03-692-164) • f. DMEM/F12 cell medium (Gibco, Catalog No. 12400-024) • g. Fetal bovine serum, origin from Australia (Gibco, Catalog No. 10099-141) • h. […] Sulforhodamine B (Sigma, Catalog No. 3520-42-1) • k. Acetic Acid (Sinophma chemical reagent company, Catalog No. T20060508) • l. Trichloroacetic Acid (Sinophma chemical reagent company, Catalog No. T20060305) • m. Tris base (Amresco, Catalog No. 0826) • n. Class II A/B3 Biological safety cabinet (ThermoForma Catalog No. HB0053 03) • o. Series II water jacketed CO2 incubator (ThermoForma Model: 3111) • p. Centrifuge (Fisher Scientific Marathon 8 k, Catalog No. 0027-02) • q. Novastar Plate reader (BMG Labtech, Catalog No. 700 0081) • r. Orbital Shaker (Qilinbeier, Catalog No. TS-1) Protocol: […] Growing seeded 96-well plates at 37° C., 5% CO2, till 85% confluence. • 4. Prepare compounds stock solution, using DMSO solve candidate compounds to a concentration of 20 mM. […] Use cell culture medium (in this case, DMEM/F12+10% FBS) to dilute the compounds solution prepared above. Each DMSO serial concentration compound solution is diluted by 20 times with culture medium by adding 5 μl DMSO compound solution to 95 μl culture medium, then mix well by vortex. This promise that the DMSO concentration at that the A431 cell will exposed to will not surpass 0.5%. • 6. […] Each well added 180 μl medium, then add 20 μl medium solution of tested compounds prepared at step 5 to each well. For control group cell, add 20 μl culture medium containing 0.5% pure DMSO. […] Each 96-well plate, we can test 3 compounds with a control cell group. • 7. Put the culture plates back to incubator, culture for 72 hours at 37° C., 5% CO2. • 8. 72 hours later, remove cultures from incubator into sterile work area. • 9. Prepare fixative (50% Trichloroacetic Acid-TCA) by adding reagent grade water to the TCA, fix the cells by gently layering […] of cold TCA solution on top of the growth medium. • 10. Incubate plates for 1 hour at 4° C. and then rinse with water several times to remove TCA, serum proteins, etc. Plates are air dried and stored until use. Bland background optical density is measured in wells incubated with growth medium without cells. • 11. Use 10% acetic acid solution to prepare 0.4% Sulforhodamine B solution. Add 50 μl sulforhodamine B solution to each well of 96-well plates. • 12. […]

[1] = A-431, A431 cells, 72 hours exposure, Sulforhodamine B

Compound | IC50 [1] | IC50 (A-431, 72 h)
O=C(CO)Nc1cc2c(cc1F)/C(=C/c1[nH]c3c(c1-c1ccc(F)cc1)C(=O)NCC3)C(=O)N2 [Example 65, N-{5-Fluoro-3-[3-(4-fluoro-phenyl)-4-oxo-4,5,6,7-tetrahydro-1H-pyrrolo[3,2-c]pyridin-2-ylmethylene]-2-oxo-2,3-dihydro-1H-indol-6-yl}-2-hydroxy-acetamide] | 3.06 µM | –
Cc1c(/C=C2\C(=O)Nc3cccc(-c4cccc(Cl)c4F)c32)[nH]c2c1C(=O)N(CCN1CCOCC1)CC2 [Example 48, 2-[4-(3-Chloro-2-fluoro-phenyl)-2-oxo-1,2-dihydro-indol-3-ylidenemethyl]-3-methyl-5-(2-morpholin-4-yl-ethyl)-1,5,6,7-tetrahydro-pyrrolo[3,2-c]pyridin-4-one] | 6.11 µM | –
Cc1c(/C=C2\C(=O)Nc3ccc(F)cc32)[nH]c2c1C(=O)N(CCN1CCOCC1)CC2 [Example 15, 2-(5-Fluoro-2-oxo-1,2-dihydro-indol-3-ylidenemethyl)-3-methyl-5-(2-morpholin-4-yl-ethyl)-1,5,6,7-tetrahydro-pyrrolo[3,2-c]pyridin-4-one] | – | 1.35 µM
COCC(=O)Nc1cc2c(cc1F)/C(=C/c1[nH]c3c(c1-c1ccc(F)cc1)C(=O)NCC3)C(=O)N2 [Example 67, N-{5-Fluoro-3-[3-(4-fluoro-phenyl)-4-oxo-4,5,6,7-tetrahydro-1H-pyrrolo[3,2-c]pyridin-2-ylmethylene]-2-oxo-2,3-dihydro-1H-indol-6-yl}-2-methoxy-acetamide] | 2.03 µM | –
Cc1c(/C=C2\C(=O)Nc3ccc(NS(C)(=O)=O)cc32)[nH]c2c1C(=O)N(CCN1CCOCC1)CC2 [Example 22, N-{3-[3-Methyl-5-(2-mopholin-4-yl-ethyl)-4-oxo-4,5,6,7-tetrahydro-1H-pyrrolo[3,2-c]pyridine-2-ylmethylene]-2-oxo-2,3-dihydro-1H-indol-5-yl}-methanesulfonamide] | 2.85 µM | –
CCN(CC)CCN1CCc2[nH]c(/C=C3\C(=O)Nc4c(NC(C)=O)cc(F)cc43)c(C)c2C1=O [Example 6, N-{3-[5-(2-Diethylamino-ethyl)-3-methyl-4-oxo-4,5,6,7-tetrahydro-1H-pyrrolo[3,2-c]pyridine-2-ylmethylene]-5-fluoro-2-oxo-2,3-dihydro-1H-indol-7-yl}-acetamide] | 1.38 µM | –

Second part, led by results:

IC50 [1] | Compound | IC50 (A-431, 72 h)
1.25 µM | Cc1c(/C=C2\C(=O)Nc3cc(NC(=O)CO)c(F)cc32)[nH]c2c1C(=O)N(CCN1CCCCC1)CC2 [Example 61, N-{5-Fluoro-3-[3-methyl-4-oxo-5-(2-piperidin-1-yl-ethyl)-4,5,6,7-tetrahydro-1H-pyrrolo[3,2-c]pyridin-2-ylmethylene]-2-oxo-2,3-dihydro-1H-indol-6-yl}-2-hydroxy-acetamide] | –
0.27 µM | Cc1c(/C=C2\C(=O)Nc3c(Br)cc(F)cc32)[nH]c2c1C(=O)N(CCN1CCCCC1)CC2 [Example 90, 2-(7-Bromo-5-fluoro-2-oxo-1,2-dihydro-indol-3-ylidenemethyl)-3-methyl-5-(2-piperidin-1-yl-ethyl)-1,5,6,7-tetrahydro-pyrrolo[3,2-c]pyridin-4-one] | –
0.12 µM | Cc1c(/C=C2\C(=O)Nc3ccc(NC=O)cc32)[nH]c2c1C(=O)N(CCN1CCCCC1)CC2 [Example 91, N-{3-[3-Methyl-4-oxo-5-(2-piperidin-1-yl-ethyl)-4,5,6,7-tetrahydro-1H-pyrrolo[3,2-c]pyridin-2-ylmethylene]-2-oxo-2,3-dihydro-1H-indol-5-yl}-formamide] | –
0.53 µM | Cc1c(/C=C2\C(=O)Nc3cccc(-c4c(F)cccc4F)c32)[nH]c2c1C(=O)N(CCN1CCCCC1)CC2 [Example 63, 2-[4-(2,6-Difluoro-phenyl)-2-oxo-1,2-dihydro-indol-3-ylidenemethyl]-3-methyl-5-(2-piperidin-1-yl-ethyl)-1,5,6,7-tetrahydro-pyrrolo[3,2-c]pyridin-4-one] | –
1.68 µM | Cc1c(/C=C2\C(=O)Nc3cccc(CCO)c32)[nH]c2c1C(=O)N(CCN1CCCC1)CC2 [Example 75, 2-[4-(2-Hydroxy-ethyl)-2-oxo-1,2-dihydro-indol-3-ylidenemethyl]-3-methyl-5-(2-pyrrolidin-1-yl-ethyl)-1,5,6,7-tetrahydro-pyrrolo[3,2-c]pyridin-4-one] | –
0.34 µM | Cc1c(/C=C2\C(=O)Nc3cc(NCc4ccc(F)cc4)c(F)cc32)[nH]c2c1C(=O)N(CCN1CCCCC1)CC2 [Example 94, 2-[5-Fluoro-6-(4-fluoro-benzylamino)-2-oxo-1,2-dihydro-indol-3-ylidenemethyl]-3-methyl-5-(2-piperidin-1-yl-ethyl)-1,5,6,7-tetrahydro-pyrrolo[3,2-c]pyridin-4-one] | –
1.66 µM | Cc1c(/C=C2\C(=O)Nc3ncc(Br)cc32)[nH]c2c1C(=O)N(CCN1CCCCC1)CC2 [Example 93, 2-(5-Bromo-2-oxo-1,2-dihydro-pyrrolo[2,3-b]pyridin-3-ylidenemethyl)-3-methyl-5-(2-piperidin-1-yl-ethyl)-1,5,6,7-tetrahydro-pyrrolo[3,2-c]pyridin-4-one] | –
